For orientation: MIC means the lowest concentration found to suppress growth. Low readings indicate a more susceptible organism, high ones a less susceptible organism.

≈ marks a conversion by molar mass, not a printed value.

Holding throughout (assay type): cell-based, Staphylococcus aureus
The test system of assay [1] is S. aureus strain USA300LAC biofilm. In words: Inhibition of biofilm formation (crystal violet). Conditions: up to 4× MIC, in words. How it is done:
(§1) The establishment of a bacterial biofilm usually begins with pathogen attachment to biotic and abiotic surfaces, and S. aureus is notorious for its ability to form biofilms on surfaces, such as implants and catheters, which presents a unique treatment challenge.
(§2) Overnight cultures of S. aureus strain USA300LAC were diluted into fresh TSB to an OD600nm = 0.001 and incubated aerobically at 37 °C until the mid-log phase. (A) To detect effects on biofilm formation, cultures were diluted to an OD600nm = 0.0001 in the presence and absence of JC-01-074 and vancomycin at concentrations of 0.5–4× MIC, respectively. (B) To detect effects on biofilm eradication, cultures were diluted to an OD600nm = 0.0001 and incubated under static conditions for 24 h, after which planktonic cells were removed, and the preformed biofilms were washed twice with PBS. […] Biofilm mass was quantified after 20 h via crystal violet staining. One-way ANOVA, Dunnett’s multiple-comparison test (* p < 0.05, ** p < 0.01); (n = 3, ±S.D.).
The overnight USA300LAC cultures were diluted 1000-fold into the fresh TSB media and incubated under shaking conditions at 37 °C until the mid-log phase. The cultures were subsequently diluted to approximately 4 × 10^6 CFU/mL and dispended into 96-well polystyrene plates (Alkali Scientific, Fort Lauderdale, FL, USA) containing DMSO (control), vancomycin (0.5–4× MIC), or the indicated alkyl pyridinol compounds (0.5–4× MIC) and sealed with a breath-easy membrane (Fisherbrand, Waltham, MA, USA). The peripheral wells were filled with PBS to limit evaporation. The plates were incubated without agitation at 37 °C for 24 h, following which the planktonic cells were removed. The biofilms were washed twice with PBS, stained with 0.1% crystal violet (CV) for 15 min, and washed again twice with PBS to remove the unbound CV dye. CV bound to biofilm cells was extracted with 30% (v/v) glacial acetic acid, and the O.D.595nm was determined.

For a further assay, the system named is MRSA USA300LAC. In words: MIC by broth microdilution (CLSI). Conditions: Staphylococcus aureus, MRSA, 16 h. How it is done:
The MIC values of the alkyl pyridinol derivatives against the S. aureus strain ATCC 25923, MRSA strains ATCC 33591, ATCC BAA-44, and USA300LAC, as well as the P. aeruginosa strain ATCC 27853, were determined by following the CLSI guidelines for the broth microdilution antibiotic sensitivity testing protocol. In brief, the overnight cultures were diluted into Mueller Hinton Broth (MHB) to a final inoculum concentration of 5 × 10^5 CFU/mL (O.D600nm = 0.00001) and dispensed into a 96-well polystyrene plate (Alkali Scientific, Fort Lauderdale, FL, USA). Alkyl pyridine compounds were diluted into inoculated MHB to the indicated concentrations from stock solutions that would allow for DMSO concentrations below 5%, resulting in a total volume of 200 μL per well. The plates were subsequently incubated at 37 °C for 16 h at 300 rpm. The MIC values, which are defined as the lowest compound concentration that inhibited growth, were determined from three biological replicates.
Background: In broth dilution the organism is exposed to a series of concentrations in liquid medium.

The test system of assay [2] is S. aureus strain USA300LAC. In words: Checkerboard assay with JC-01-074 (FIC index). Conditions: MHB, 37 °C, 20 h, antibiotic combined with JC-01-074. The method, then: Therefore, we tested whether the membrane-disrupting effects of JC-01-074 could increase the sensitivity of the S. aureus strain USA300LAC to antibiotics of different classes; for instance, by facilitating their uptake into the cytoplasm. […] Antibiotic concentrations were prepared by the microbroth dilution in MHB based on their MIC values (Table 1) to obtain the final concentrations as outlined in the 96-well plate scheme for each antibiotic tested (Supplementary Figure S3). Overnight USA300LAC cultures were diluted to 5 × 10^5 CFU/mL in MHB, and the growth was recorded at 37 °C and 200 rpm for 20 h in the presence and absence of the indicated antibiotic.
FICs were calculated as the ratio of the MIC of the antimicrobial in combination with the MIC of the antimicrobial alone. Interactions were categorized as synergistic (<0.5), additive or no interaction (0.5–2), and antagonistic (>2). FICs were calculated from three biological replicates.
Following previous studies, the checkerboard assay was employed to determine whether JC-01-074 had synergistic effects in combination with members of different antibiotic classes. The indicated antibiotics tested in combination were first serially diluted two-fold in MHB on a longitudinal axis in a 96-well polystyrene plate. JC-01-074 was then serially diluted two-fold across the 96-well plate horizontal axis. The plates were inoculated with USA300LAC to a final inoculum concentration of 5 x10^5 CFU/mL (O.D.600nm = 0.0001) and incubated overnight at 37 °C for 20 h. The growth was measured at 600 nm in a Tecan 200 Infinite Pro microplate reader. The fractional inhibitory concentration was calculated as follows:FIC = MICJC-01-074 + antibiotics/[…]
The classification of interactions was based on the FIC index: interactions were categorized as synergistic (FIC ≤ 0.5), additive/no interaction (FIC 0.5–2.0), and antagonistic (FIC > 2.0).

The test system of assay [3] is S. aureus strain USA300LAC established biofilm. In words: Biofilm eradication assay (crystal violet). Conditions: at or below 4× MIC, 24 h, in words. The method, then:
as §1, §2
The overnight USA300LAC cultures were diluted 1000-fold into the TSB media and incubated under shaking conditions at 37 °C until the mid-log phase. […] After 24 h of incubation, biofilm eradication was assessed via CV staining at 595 nm in a Tecan 200 Infinite Pro microplate reader (Tecan, Morgan Hill, CA, USA).

For the compound `CN[C@H](CC(C)C)C(=O)N[C@H]1C(=O)N[C@@H](CC(N)=O)C(=O)N[C@H]2C(=O)N[C@H]3C(=O)N[C@H](C(=O)N[C@H](C(=O)O)c4cc(O)cc(O)c4-c4cc3ccc4O)[C@H](O)c3ccc(c(Cl)c3)Oc3cc2cc(c3O[C@@H]2O[C@H](CO)[C@@H](O)[C@H](O)[C@H]2O[C@H]2C[C@](C)(N)[C@H](O)[C@H](C)O2)Oc2ccc(cc2Cl)[C@H]1O` [Vancomycin, reference compound], the “inhibition of biofilm formation” value in assay [1] is on record as “failed to significantly inhibit biofilm formation”. The MIC in the assay on MRSA USA300LAC is 1 µg/mL (≈ 0.69 µM). The “interaction with JC-01-074 (sum of FIC values)” value in assay [2] is “additive (additive/no interaction (FIC 0.5–2.0))”. Moreover, in assay [3], the “eradication of established biofilms” value was “neither JC-01-074 nor vancomycin successfully reduced established biofilms”.

The values are drawn from PMC11428593 (Antibiotics, 2024).
